Data as given in paper PMC3229523, “Identification of Lactoferricin B Intracellular Targets Using an Escherichia coli Proteome Chip” (PLoS ONE, 2011).
Ends that are not written are not given here. * marks the point of attachment. Biotin = O=C1N[C@H]2[C@H](CS[C@H]2CCCCC(=O)*)N1

Columns and labels:
[1] = tested on: NrdB; assay: E. coli proteome chip assay, NrdB; type: binding, E. coli K-12; conditions: NrdB not in the top 153 proteins; 10 nM biotinylated LfcinB
Description: To fabricate the proteome chips, E. coli K-12 proteins were expressed and purified in a high-throughput fashion. The procedure was modified from Chen et al.. Briefly, E. coli protein expression clones fused with a 6×-His tag, provided by Dr. Mori, were first incubated with glass beads (Biospec Products Inc.) in 2× LB medium containing 30 µg/ml chloramphenicol in 96 DeepWell™ plates (Nunc) at 37°C overnight. The overnight cultures were then diluted with 2× LB that contains 30 µg/ml chloramphenicol to the OD595 value of 0.1. When the cells grew to an OD595 value of 0.7–0.9, 500 µM of isopropyl β-D-thiogalactoside (IPTG) was added to induce protein expression at 37°C for ∼3.5 h. The cultures were then harvested by centrifugation at 3220 g for 5 min at 4°C, and the pellets were stored at −80°C before purification. […]
For image processing of chip assay results, Genepix Pro 6.0 was used to align the protein spot of each individual protein and then all aligned protein image signals were exported as a text file. The text file was analyzed by ProCAT [17], a signal normalization method. The relative ability of LfcinB to bind to each protein was estimated by the ratio of the fluorescence intensity of LfcinB to the fluorescence intensity of an anti-His antibody after the normalization. […]

[2] = tested on: RecC; assay: Fluorescence polarization assay, RecC; type: binding, E. coli; conditions: 100 nM DyLight 549-labeled LfcinB; protein 0.025-0.4 µM; data not shown
Text: (§1) FP assays, investigations of the binding between two molecules in a homogeneous aqueous environment, were used to validate the identified 153 proteins. […] If a fluorophore only binds to a small molecule, such as peptide, the rotation of the complex is fast and the light emits in a different plane of polarization. Therefore, the degree of polarization is low. However, once a fluorophore binds to a large molecule, the bound complex is stimulated with polarized light. The light emits in the same polarized plane, and the complex is maintained in the same plane of polarization, causing an increase in the degree of polarization [22]–[24]. The amount of molecules binding to a fluorophore influences the degree of polarization. In this study, LfcinB was labeled with DyLight™ 549 as a reference value. Once the protein bound to LfcinB, like a fluorophore binds to a large molecule, a high degree of polarization is expected.
(§2) Before the assays, LfcinB was labeled with DyLight™ 549 and tested proteins were quantified with a Pierce® bicinchoninic acid (BCA™) protein assay (Thermo). To label the LfcinB, DyLight™ 549-NHS ester and LfcinB (68∶1, mole/mole) were mixed in PBS at room temperature for 1 h, a D-Salt™ polyacrylamide desalting column (Thermo) was used to remove excess dye and the labeling efficiency of the eluted solution was calculated. […]

[3] = tested on: YqiA; assay: Fluorescence polarization assay, YqiA; type: binding, E. coli; conditions: 100 nM DyLight 549-labeled LfcinB; protein 0.025-0.4 µM; data not shown
Text: as §1, §2

[4] = tested on: YhaN; assay: Fluorescence polarization assay, YhaN; type: binding, E. coli; conditions: 100 nM DyLight 549-labeled LfcinB; protein 0.025-0.4 µM; data not shown
Text: as §1, §2

[5] = tested on: Ppc; assay: Fluorescence polarization assay, Ppc; type: binding, E. coli; conditions: 100 nM DyLight 549-labeled LfcinB; protein 0.025-0.4 µM; data not shown
Text: as §1, §2

[6] = tested on: Adi; assay: Fluorescence polarization assay, Adi; type: binding, E. coli; conditions: 100 nM DyLight 549-labeled LfcinB; protein 0.025-0.4 µM; data not shown
Text: as §1, §2

[7] = tested on: E. coli K-12 BW25113 (isogenic parent) strain; assay: Knockout assay, isogenic parent strain; type: cell-based; conditions: 32 µM LfcinB, LB medium, 37°C, approx. 10^7 CFU/ml
Description: (§3) The E. coli K-12 BW25113 (isogenic parent) strain and the 16 knockout strains were obtained from the E. coli Genetic Resources at the Coli Genetic Stock Center (CGSC) at Yale University. The strains were inoculated into LB medium, and incubated at 37°C with shaking. After 16 h of incubation, the cultures were diluted to approximately 10^7 CFU/ml with LB medium. Thirty-two µM of LfcinB were then added to the cultures in a 96-well plate. PBS was used as a negative control. Cultures with LfcinB or PBS were then incubated at 37°C with shaking in a microplate reader and the growth was observed by measuring the OD595 value every 20 min for 7 h 20 min.

[8] = tested on: isogenic parent strain and the knockout strains; assay: Knockout assay, isogenic parent and knockout strains together; type: cell-based, E. coli K-12; conditions: 32 µM LfcinB, LB medium, 37°C
Description: as §3

In the case of “Lactoferricin B (Biotin-FKCRRWQWRMKKLGAPSITCVRRAF; ends and bridges not checked) [LfcinB]”, the “binding affinity in chip assays” value [1] is reported as “strong binding affinity with LfcinB”, the “binding to RecC” value [2] is reported as “confirmed to bind to LfcinB” and the “binding to YqiA” value [3] is reported as “confirmed to bind to LfcinB”. The “binding to YhaN” value [4] was “confirmed to bind to LfcinB”, the “binding to Ppc” value [5] was “confirmed to bind to LfcinB” and the “binding to Adi” value [6] was “confirmed to bind to LfcinB”. For the same substance, the “growth with LfcinB” value [7] was “inhibited the growth of the isogenic parent strain”, the “growth curves, initial part (0–1.5 h), with vs without LfcinB” value ([8]; 0–1.5 h) was “higher growth curves than the strains grown without LfcinB” and the “slopes of growth curves, middle part (2–4 h), with vs without LfcinB” value ([8]; 2–4 h) was “lower than the slopes of the strains without LfcinB”.
